Results as given in a melting point compilation (Tetko et al.; mined from patent text by program, amines drawn as free bases though some values may be those of a salt).

| Structure (SMILES) | melting point [°C] |
| --- | --- |
| CC(c1ccc(Cl)cc1)N1C(=O)CC(Br)C1=O (configuration not stated) | 96 |
| O=C(Nc1c(OCc2ccccc2)cc(Br)cc1[N+](=O)[O-])C1CC1 | 191 |
| Cc1ccc2ccn(CC(C)O)c2c1 (racemic) | 65 to 69 |
| Cc1cc(Cc2ccccc2)c(NC(=O)NCc2ccccc2)c(=O)n1CC(=O)O | 176 |
| CC(C)N(c1cccc2cc(-c3ncc(CCl)s3)[nH]c12)S(=O)(=O)c1cccs1 | 184 to 185 |
| COC(=O)c1ccccc1S(=O)(=O)NCC(=O)Nc1cc(C)on1 | 153 to 156 |
| COc1ccccc1N1CCN(CC(O)CS(=O)c2ccc(F)cc2)CC1 (configuration not stated) | 164 to 165 |
| CCOC(=O)CC(=O)c1cc(F)c(F)c(Cl)c1Cl | 52 to 53 |
| Clc1cncc(Oc2cccc(Cl)n2)c1 | 46 to 47 |
| Cn1c(=O)c(=O)[nH]c2ccccc21 | 277 to 286 |
| O=Cc1c[nH]c2c1ccc1c3cccc(Br)c3[nH]c12 | > 250 |
| O=S(=O)(C=CC(=Nc1ccccc1)Oc1ccccc1)c1ccccc1 | 110 to 116 |
| COc1ccc(NC(=O)c2ccc(F)c(F)c2)cc1NC(=S)Nc1cccc(C(=O)O)c1 | 218 to 220 |
| O=C1NC(=S)NC1=Cc1cc(O)c(O)c([N+](=O)[O-])c1 | > 350 |
| O=C(O)c1cc2cc(Cl)cc(Cl)c2nc1N[C@@H](Cc1ccccc1)C(=O)O | 218 to 223 |
| Cc1cc(C(C#N)=CN(C)C)ccn1 | 126 |
| CC1(c2ccccc2)Cc2cc(O)c(Cl)c(Cl)c2C1O (configuration not stated) | 163 to 165 |
| CCOc1cc2cc(CO)cc(-c3ccnc(NN)c3)c2cc1OCC | 147 to 149 |
| CC(C)(C)Nc1c(NCc2ccccc2F)c(=O)c1=O | 260 to 262 |
| CCOCCOC(=O)Nc1c(C#N)cnn1-c1ccc(Cl)c(Cl)c1Cl | 122 to 124 |
| O=Cc1ccc2c(c1)C(=O)OC2 | 134 |
| COC1=C(c2cccc(C(F)(F)F)c2)C(=O)OC1 | 126 |

| Structure (SMILES) | melting point [°C] |
| --- | --- |
| CC(C)(C)C(=O)COc1ccc(Cl)cc1Cl | 65 |
| COCc1c(C#CBr)ncc2[nH]c3cccc(OCc4ccccc4)c3c12 | 160 |
| Cc1cccc(NC(=O)NCC(=O)N(CC(=O)N(C)c2ccccc2)c2ccccc2)c1 | 168 |
| O=C(O)COc1cc(C(=O)O)nc2ccc(Cl)cc12 | 260 |
| CCc1nc(-c2ccc(OCCCN3CCOCC3)cc2)no1 | 52 to 53 |
| O=C(Nc1cccc(Cl)c1)N1CCNC1=N[N+](=O)[O-] | 214 to 216 |
| O=C(NCC1Cc2ccc3c(c2O1)CCC3)OCc1ccccc1 (configuration not stated) | 99 to 101 |
| O=c1c2cc(F)c(F)cc2n(-c2ccc(F)cc2)c(=O)n1OCc1ccccc1 | 201 to 202 |
| O=C(O)c1cc(-c2ccccc2)cnc1Cl | 239 to 240 |
| C=CCSc1cc(C(=O)O)cc([N+](=O)[O-])c1-c1ccccc1 | 152 to 154 |
| CCCCOCC(O)COc1ccc(-c2nc(-c3ccc(C)cc3C)nc(-c3ccc(C)cc3C)n2)c(O)c1 (configuration not stated) | 80 to 83 |
| CNc1cc(Cl)ccc1C(C)=O | 65 to 66 |
| Cc1ccc(Cl)c(Nc2ccccc2CON=CC(=O)O)c1Cl | 185 to 187 |
| O=[N+]([O-])CC(c1ccc(Cl)cc1)C1CCCCC1O (racemic) | 82 to 84 |
| CC(C)[C@H](NC(=O)OCc1ccccn1)C(=O)N[C@@H](Cc1ccccc1)C[C@H](OC=O)[C@H](Cc1ccccc1)NC(=O)[C@@H](NC(=O)OCc1ccccn1)C(C)C | 206 to 207 |
| CCOC(=NC(=O)c1cc(Cl)nc(Cl)c1)N1Cc2ccccc2-c2ccccc2C1 | 151 to 152 |
| COc1cc2nc(S)[nH]c2cc1OC | 278 to 280 |
| O=C(c1ccc(-n2cccn2)nc1Cl)N1Cc2cccn2Cc2ccccc21 | 133 to 135 |
| CN(C)C=CC(=O)c1c(-c2ccccc2Cl)nc2occn12 | 187 to 189 |
| CCOCc1nc2c(N)nc(C)c(C)c2n1CCOCc1ccccc1 | 107 to 108 |
| Nc1ncnc2c1c(-c1cc(O)cc(F)c1)nn2Cc1oc2cccc(F)c2c(=O)c1-c1cccc(F)c1 | 136 to 138 |
| O=C1CNc2ncc(I)cc2N1Cc1cc(C(F)(F)F)ccc1Cl | 252 to 253 |

Results, then the compound that gave them:

| melting point [°C] | Structure (SMILES) |
| --- | --- |
| 118 to 120 | NS(=O)(=O)c1nc2ccc(OC(=O)CC3CCCC3)cc2s1 |
| 186 to 191 | O=c1[nH]c2ccc(C3=NOC(CN4CCC(C(O)c5ccc(F)cc5)CC4)C3)cc2o1 (configuration not stated) |
| 132 to 134 | CC(=O)OC1CC(C)(C)N(OC(=O)C23CC4CC(CC(C4)C2)C3)C(C)(C)C1 |
| 95 to 96 | O=C(O)CCCCCc1nn(-c2ccc(F)cc2)c2c1CCCC2 |
| 198 to 202 | CC(C)(C)OC(=O)N1CCC=C(C(=O)O)C1 |
| 100 to 101 | CC(C)CN1C(=O)C2CC2(c2ccc(N)cc2)C1=O (configuration not stated) |
| 145 to 147 | CC(C)(C)OC(=O)NCCNC(=O)c1ncccc1OCc1ccccc1 |
| 166 to 167 | CC1(COC2(C(F)(F)F)CN(C3CC3)C(=O)Nc3ccc(Cl)cc32)CC1 (configuration not stated) |
| 146 to 147 | COC(=O)c1ccc(C2=NC(C)(C)Cc3cc(OC)c4c(c32)CC(C)(C)O4)cc1NC(=O)C(F)(F)F |
| 121 | CC(=O)OCOC(=O)c1oc(-c2ccccc2)cc(=O)c1Br |
| 98 to 100 | CC(C)(C)OC(=O)/C(=C/c1ccc(Br)cc1)C(=O)c1ccccc1O |
| 99 to 101 | CCCCOC(=O)N=C(NC(=O)c1ccccc1)SC |
| 186 to 189 | COC(=O)C1=C(C)Nc2c(c(-c3ccccc3)nn2-c2ccccc2)C1c1cccc([N+](=O)[O-])c1 (configuration not stated) |
| 158 | CC12CCC(C(=Cc3ccc([N+](=O)[O-])cc3)C1=O)C2(C)C (configuration not stated) |
| 125 to 127 | Nc1sc2c(c1C(=O)c1ccsc1)CCC2 |
| 106 to 109 | CCCn1cc(Cc2ccc(C(=O)OC)cc2OC)c2cc(CCCC(=O)O)ccc21 |
| 192 to 193 | CCOC(=O)C1CCCCN1C(=O)[C@H](CCCNC(=N)N)NS(=O)(=O)c1ccc2cc(OC)ccc2c1 (some centres not stated) |
| 197 to 198 | CCOCc1nc2c(N)nc3ccccc3c2n1CCCCS(=O)(=O)NC1CCCCC1 |
| 88 to 90 | O=C(CCc1ccc(O)c(Cl)c1)C1CCCC1 |
| 144 to 146 | CC(C)(C)OC(=O)C1CCCN1C(=O)c1ccc2c(Cl)cnc(Cl)c2c1 (racemic) |
| 100 to 102 | OC1CCCN(CC(O)COc2ccc(-c3ccc(F)cc3)cc2)C1 (configuration not stated) |
| 129 to 130 | CCOC(=O)c1ccc(O)c(-n2cc3c(c2-c2ccccc2)c(=O)n(C)c(=O)n3C)c1 |
| 215 to 216 | O=C(O)c1cc2c(=O)n(C3CCCC3)c3ccccc3n2c1 |
| 81 to 83 | O=C(O)CCCC(=O)ON1C(=O)CCC1=O |
| 133 to 135 | CC(C)c1cc(C(=O)Nc2ccc(C(=O)O)c(F)c2)sc1C(C)C |
| 114 to 115 | CCOC(=O)c1cc(=O)c2ccccc2n1C |
| 191 to 193 | CCCc1c(OCc2c(C)ccn3c(=O)c(CC(=O)O)cnc23)ccc(C(C)=O)c1O |
| 109 | CCC1(CC)C(=O)N(C(C)(C)C)CC(C)(C)N1OC(=O)C(c1ccccc1)c1ccccc1 |
